{
  "source": "BindingDB's records for doi:10.7270/Q2NS0SCW",
  "about": "(Burnham Center For Chemical Genomics, 2010)",
  "data": [
    {"molecular_target": "Alkaline phosphatase, placental type (Homo sapiens, UniProt P05187)", "sequence (P05187 whole entry, looked up)": "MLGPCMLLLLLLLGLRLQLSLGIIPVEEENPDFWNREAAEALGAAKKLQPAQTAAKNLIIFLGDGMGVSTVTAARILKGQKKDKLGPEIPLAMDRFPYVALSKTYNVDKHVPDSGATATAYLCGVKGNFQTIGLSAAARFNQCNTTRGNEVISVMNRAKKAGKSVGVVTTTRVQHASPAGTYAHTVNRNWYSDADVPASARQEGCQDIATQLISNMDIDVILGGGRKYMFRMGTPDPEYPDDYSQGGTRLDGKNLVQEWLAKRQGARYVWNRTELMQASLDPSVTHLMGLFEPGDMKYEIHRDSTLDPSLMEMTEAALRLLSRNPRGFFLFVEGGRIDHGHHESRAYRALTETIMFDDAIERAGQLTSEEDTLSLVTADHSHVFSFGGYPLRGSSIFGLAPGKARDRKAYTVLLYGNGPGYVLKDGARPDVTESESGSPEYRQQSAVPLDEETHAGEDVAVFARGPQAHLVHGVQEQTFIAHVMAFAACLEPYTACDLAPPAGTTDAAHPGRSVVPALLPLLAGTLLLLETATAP", "experiment": "inhibition of placental alkaline phosphatase – biochemical, uHTS hits, selectivity assay for mouse IAP inhibitor project, dose response (AID 488879)", "units": {"IC50": "µM"}, "values": [
      {"smiles": "Cc1ccc(Cl)c2c1NC(=O)/C2=C1/NC(=S)NC1=O", "IC50": "> 100"},
      {"smiles": "Nc1nnc(CC(=O)N/N=C/C2C=C([N+](=O)[O-])C=C(Br)C2=O)s1", "note": "(stereo not given) [2-(5-azanyl-1,3,4-thiadiazol-2-yl)-N'-[(E)-(5-bromanyl-3-nitro-6-oxidanylidene-cyclohexa-2,4-dien-1-ylidene)methyl]ethanehydrazide]", "IC50": "> 100"},
      {"smiles": "NS(=O)(=O)c1cc(C(=O)NNC2=c3ccccc3=NC2=O)ccc1Cl", "note": "[2-chloro-5-[[(2-oxoindol-3-yl)amino]carbamoyl]benzenesulfonamide]", "IC50": "> 100"},
      {"smiles": "COc1cc(C=Nn2c(O)csc2=S)ccc1O", "note": "[3-[[(E)-(3-methoxy-4-oxidanylidene-cyclohexa-2,5-dien-1-ylidene)methyl]amino]-2-sulfanylidene-1,3-thiazolidin-4-one]", "IC50": "> 100"},
      {"smiles": "Oc1ccc(C=Nn2c(O)csc2=S)c(O)c1O", "note": "[3-[[(E)-[2,3-bis(oxidanyl)-4-oxidanylidene-cyclohexa-2,5-dien-1-ylidene]methyl]amino]-2-sulfanylidene-1,3-thiazolidin-4-one]", "IC50": "> 100"},
      {"smiles": "CC1NON=C1C(=O)NN=CC1=CC(=O)C(=O)C=C1", "note": "(stereo not given) [4-Methyl-furazan-3-carboxylic acid (3,4-dihydroxy-benzylidene)-hydrazide]", "IC50": 18},
      {"smiles": "Cc1ccc(/C=C2\\SC(=S)N(/N=C/C3C=C([N+](=O)[O-])C=CC3=O)C2=O)o1", "note": "(stereo not given) [(5Z)-5-[(5-methylfuran-2-yl)methylidene]-3-[[(E)-(3-nitro-6-oxocyclohexa-2,4-dien-1-ylidene)methyl]amino]-2-sulfanylidene-1,3-thiazolidin-4-one]", "IC50": "> 100"},
      {"smiles": "C#CCOCCOCCOCCNc1nc(N2CCN(C(=O)CCCCCCCCCCNC(=O)[C@H]([C@@H](C)CC)n3cc(CCCCN=C(N)N)nn3)CC2)nc(N2CCN(C(=O)CCCCCCCCCCNC(=O)[C@@H]([C@H](C)O)n3cc(C)nn3)CC2)n1", "note": "[GT-RI]", "IC50": "> 100"},
      {"smiles": "O=C1C=CC(C=NNC(=S)Nc2ccccc2[N+](=O)[O-])C=C1O", "note": "(stereo not given) [MLS000417596]", "IC50": "> 100"},
      {"smiles": "C#CCOCCOCCOCCNc1nc(N2CCN(C(=O)CCCCCCCCCCNC(=O)[C@@H](CCSC)n3cc(CCO)nn3)CC2)nc(N2CCN(C(=O)CCCCCCCCCCNC(=O)[C@H]([C@@H](C)CC)n3cc(CCCCCN)nn3)CC2)n1", "note": "[MLS002153719]", "IC50": "> 100"},
      {"smiles": "O=c1cc(O)cc2oc(-c3ccc(O)c(O)c3)c(O[C@@H]3O[C@H](CO)[C@@H](O)[C@H](O)[C@H]3O)c(O)c1-2", "note": "[Quercetin 3-O-beta-D-glucoside]", "IC50": "> 100"},
      {"smiles": "NS(=O)(=O)c1ccc(N=Nc2c(=O)[nH]n3c(=O)c4c([nH]c23)CCCC4)cc1", "note": "[SMR000231775]", "IC50": 21.8},
      {"smiles": "O=C(Nn1c(O)csc1=S)C(=O)Nn1c(O)csc1=S", "note": "[SMR000349781]", "IC50": "> 100"},
      {"smiles": "COc1cc(C=CC(=O)CC(=O)C=Cc2ccc(O)cc2)ccc1O", "note": "[demethoxycurcumin]", "IC50": "> 100"}
    ]},
    {"molecular_target": "not listed separately", "experiment": "inhibition of placental alkaline phosphatase – biochemical, uHTS hits, selectivity assay for mouse IAP inhibitor project, dose response (AID 488879)", "units": {"IC50": "µM"}, "values": [
      {"smiles": "O=C1Nc2ccccc2/C1=C1/SC(=S)N(NC(=O)c2ccccc2)C1=O", "note": "[N-[(5Z)-4-oxo-5-(2-oxo-1H-indol-3-ylidene)-2-sulfanylidene-3-thiazolidinyl]benzamide]", "IC50": 5.31}
    ]}
  ]
}
